In this experiment the test system is CD2F1 mice, L1210 leukemia ip, survival T/C. The experiment in a line: NCI In Vivo Anticancer Drug Screen. Data for tumor model L1210 Leukemia (intraperitoneal) in CD2F1 (CDF1) mice. The conditions noted are these: higher = longer survival. An outline of the steps: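 Ratio T/C, where T is the treated-group value and C the vehicle-dosed control value, from mice implanted with a transplantable tumor.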

Where [1] appears, read: endpoint: mean survival time, dose: 100.0 mg/kg/injection, schedule: Q04DX003 (ip), vehicle: saline with Tween-80.
Setting [2] is: endpoint: mean survival time, dose: 200.0 mg/kg/injection, schedule: Q04DX003 (ip), vehicle: saline with Tween-80.
Setting [3] is: endpoint: mean survival time, dose: 400.0 mg/kg/injection, schedule: Q04DX003 (ip), vehicle: saline with Tween-80.
Setting [4] is: endpoint: mean survival time, dose: 100.0 mg/kg/injection, schedule: Q04DX003 (ip), vehicle: saline.
Setting [5] is: endpoint: mean survival time, dose: 200.0 mg/kg/injection, schedule: Q01DX001 (ip), vehicle: saline.
[6] abbreviates: endpoint: mean survival time, dose: 200.0 mg/kg/injection, schedule: Q04DX003 (ip), vehicle: saline.
Setting [7] is: endpoint: mean survival time, dose: 100.0 mg/kg/injection, schedule: Q01DX009 (ip), vehicle: saline with Tween-80.
Setting [8] is: endpoint: mean survival time, dose: 200.0 mg/kg/injection, schedule: Q01DX009 (ip), vehicle: saline with Tween-80.
Where [9] appears, read: endpoint: mean survival time, dose: 400.0 mg/kg/injection, schedule: Q01DX009 (ip), vehicle: saline with Tween-80.

Inconclusive results and toxic doses are left out.

For `[Cl][Pt+2][Cl].[NH-]c1ccccc1F.[NH-]c1ccccc1F`, the T/C was 112 % of control (endpoint: mean survival time, dose: 15.63 mg/kg/injection, schedule: Q04DX003 (ip), vehicle: saline with Tween-80); 108 % of control (endpoint: mean survival time, dose: 31.25 mg/kg/injection, schedule: Q04DX003 (ip), vehicle: saline with Tween-80); 115 % of control (endpoint: mean survival time, dose: 62.5 mg/kg/injection, schedule: Q04DX003 (ip), vehicle: saline with Tween-80); 93 % of control (endpoint: mean survival time, dose: 125.0 mg/kg/injection, schedule: Q04DX003 (ip), vehicle: saline with Tween-80).
Turning to `CN1C(=O)C(Cl)=C(Cl)C1=O`, the T/C was 103 % of control (endpoint: mean survival time, dose: 1.56 mg/kg/injection, schedule: Q04DX003 (ip), vehicle: saline); 101 % of control (endpoint: mean survival time, dose: 3.13 mg/kg/injection, schedule: Q04DX003 (ip), vehicle: saline); 101 % of control (endpoint: mean survival time, dose: 6.25 mg/kg/injection, schedule: Q04DX003 (ip), vehicle: saline).
`OC1CCCC2CCCCC12` (stereo not given): the T/C is 100 % of control under setting [1], 109 % of control under setting [2] and 94 % of control under setting [3].
For the compound `O=S(=O)(Cl)c1ccc(F)cc1`, the T/C by setting is: (endpoint: mean survival time, dose: 100.0 mg/kg/injection, schedule: Q01DX001 (ip), vehicle: saline) 106 % of control; under setting [4], 101 % of control; under setting [5], 109 % of control; under setting [6], 102 % of control; (endpoint: mean survival time, dose: 400.0 mg/kg/injection, schedule: Q01DX001 (ip), vehicle: saline) 103 % of control; (endpoint: mean survival time, dose: 400.0 mg/kg/injection, schedule: Q04DX003 (ip), vehicle: saline) 98 % of control.
`S=C(Oc1ccc(Cl)cc1)Sc1ccc(Cl)cc1`: the T/C (endpoint: mean survival time, dose: 100.0 mg/kg/injection, schedule: Q04DX002 (ip), vehicle: Klucel (hydroxypropylcellulose) (HPC)) was 101 % of control; the T/C (endpoint: mean survival time, dose: 200.0 mg/kg/injection, schedule: Q04DX002 (ip), vehicle: Klucel (hydroxypropylcellulose) (HPC)) was 89 % of control; the T/C (endpoint: mean survival time, dose: 400.0 mg/kg/injection, schedule: Q04DX002 (ip), vehicle: Klucel (hydroxypropylcellulose) (HPC)) is 97 % of control.
As for `O=[N+]([O-])c1cc(Cl)ccc1Nc1ccccc1`, the T/C (endpoint: mean survival time, dose: 100.0 mg/kg/injection, schedule: Q04DX003 (ip), vehicle: Klucel (hydroxypropylcellulose) (HPC)) is 102 % of control; the T/C (endpoint: mean survival time, dose: 200.0 mg/kg/injection, schedule: Q04DX003 (ip), vehicle: Klucel (hydroxypropylcellulose) (HPC)) was 102 % of control; the T/C (endpoint: mean survival time, dose: 400.0 mg/kg/injection, schedule: Q04DX003 (ip), vehicle: Klucel (hydroxypropylcellulose) (HPC)) was 98 % of control.
For the compound `CC(=O)c1ccc[n+](C)c1`, the T/C is 104 % of control under setting [4] and 104 % of control under setting [6].
On to `c1cc2nc(c1)CSCCCCCCSC2`, for which the T/C reads like this: under setting [7], 91 % of control; under setting [8], 90 % of control; under setting [9], 91 % of control.
Turning to `CCCCOC(=O)CNC(=O)c1ccc(C)c(OCc2ccccc2)c1[N+](=O)[O-]`, the T/C was 100 % of control (endpoint: mean survival time, dose: 75.0 mg/kg/injection, schedule: Q01DX001 (ip), vehicle: steriod suspending solution); 100 % of control (endpoint: mean survival time, dose: 150.0 mg/kg/injection, schedule: Q01DX001 (ip), vehicle: steriod suspending solution); 100 % of control (endpoint: mean survival time, dose: 300.0 mg/kg/injection, schedule: Q01DX001 (ip), vehicle: steriod suspending solution).
Consider `Cn1c(=O)c2c(ncn2C2C(=O)NNC2=O)n(C)c1=O`, for which the T/C runs as follows: (endpoint: mean survival time, dose: 12.5 mg/kg/injection, schedule: Q01DX005 (ip), vehicle: distilled water + Tween-80) 102 % of control; (endpoint: mean survival time, dose: 25.0 mg/kg/injection, schedule: Q01DX005 (ip), vehicle: distilled water + Tween-80) 104 % of control; (endpoint: mean survival time, dose: 50.0 mg/kg/injection, schedule: Q01DX005 (ip), vehicle: distilled water + Tween-80) 104 % of control; (endpoint: mean survival time, dose: 100.0 mg/kg/injection, schedule: Q01DX005 (ip), vehicle: distilled water + Tween-80) 98 % of control; (endpoint: mean survival time, dose: 200.0 mg/kg/injection, schedule: Q01DX005 (ip), vehicle: distilled water + Tween-80) 92 % of control; (endpoint: mean survival time, dose: 400.0 mg/kg/injection, schedule: Q01DX005 (ip), vehicle: distilled water + Tween-80) 95 % of control.
Turning to `CC(O)C(O)C(O)C(O)CO` (stereo not given) (tested in a mixture with another compound), the T/C by setting is: (endpoint: mean survival time, dose: 75.0 mg/kg/injection, schedule: Q01DX001 (ip), vehicle: saline with Tween-80) 87 % of control; (endpoint: mean survival time, dose: 150.0 mg/kg/injection, schedule: Q01DX001 (ip), vehicle: saline with Tween-80) 93 % of control; (endpoint: mean survival time, dose: 300.0 mg/kg/injection, schedule: Q01DX001 (ip), vehicle: saline with Tween-80) 86 % of control.
`O=c1cc[nH]c(=O)o1`: the T/C is, setting by setting: (endpoint: mean survival time, dose: 42.0 mg/kg/injection, schedule: Q01DX009 (ip), vehicle: water) 122 % of control; under setting [1], 114 % of control; under setting [2], 92 % of control; (endpoint: median survival time, dose: 63.0 mg/kg/injection, schedule: Q01DX009 (ip), vehicle: water) 87 % of control.
For the compound `O=C(Nc1ccc(Br)cc1)c1ccccc1`, the T/C is 107 % of control under setting [7]; 102 % of control under setting [1]; 94 % of control under setting [8]; 102 % of control under setting [2]; 91 % of control under setting [9]; 100 % of control under setting [3].
On to `CN(C)C(=O)c1cc2ccccc2n1C`, for which the T/C was 97 % of control (endpoint: mean survival time, dose: 100.0 mg/kg/injection, schedule: Q01DX001 (ip), vehicle: saline with Tween-80); 98 % of control (endpoint: mean survival time, dose: 200.0 mg/kg/injection, schedule: Q01DX001 (ip), vehicle: saline with Tween-80); 94 % of control (endpoint: mean survival time, dose: 400.0 mg/kg/injection, schedule: Q01DX001 (ip), vehicle: saline with Tween-80).
For the compound `CCCCN(CCCC)CCCN(CCCOS(C)(=O)=O)CCCOS(C)(=O)=O`, the T/C (endpoint: mean survival time, dose: 12.0 mg/kg/injection, schedule: Q01DX001 (ip), vehicle: saline) was 110 % of control; the T/C (endpoint: mean survival time, dose: 12.5 mg/kg/injection, schedule: Q01DX009 (ip), vehicle: saline) is 121 % of control; the T/C (endpoint: mean survival time, dose: 12.5 mg/kg/injection, schedule: Q04DX003 (ip), vehicle: saline) was 110 % of control; the T/C (endpoint: mean survival time, dose: 25.0 mg/kg/injection, schedule: Q01DX001 (ip), vehicle: saline) is 114 % of control; the T/C (endpoint: mean survival time, dose: 25.0 mg/kg/injection, schedule: Q04DX003 (ip), vehicle: saline) is 117 % of control; the T/C (endpoint: mean survival time, dose: 50.0 mg/kg/injection, schedule: Q01DX009 (ip), vehicle: saline) is 162 % of control. The T/C runs as follows: (endpoint: mean survival time, dose: 100.0 mg/kg/injection, schedule: Q01DX009 (ip), vehicle: saline) 102 % of control; under setting [4], 160 % of control; under setting [5], 90 % of control.
For the compound `CN(Cc1cnc2nc(N)nc(N)c2n1)c1ccc(C(=O)NC(CCC(N)=O)C(=O)O)cc1` (stereo not given), the T/C (endpoint: mean survival time, dose: 1.0 mg/kg/injection, schedule: Q01DX009 (ip), vehicle: sodium bicarbonate) was 102 % of control; the T/C (endpoint: mean survival time, dose: 10.0 mg/kg/injection, schedule: Q01DX009 (ip), vehicle: sodium bicarbonate) is 118 % of control; the T/C (endpoint: mean survival time, dose: 50.0 mg/kg/injection, schedule: Q01DX009 (ip), vehicle: sodium bicarbonate) was 150 % of control; the T/C (endpoint: mean survival time, dose: 180.0 mg/kg/injection, schedule: Q04DX003 (ip), vehicle: sodium bicarbonate) was 158 % of control; the T/C (endpoint: mean survival time, dose: 268.0 mg/kg/injection, schedule: Q04DX003 (ip), vehicle: sodium bicarbonate) is 114 % of control; the T/C (endpoint: mean survival time, dose: 400.0 mg/kg/injection, schedule: Q04DX003 (ip), vehicle: sodium bicarbonate) was 110 % of control.
Consider `CC(C)c1ccc(/C=C2/CCCCC2=O)cc1`, for which the T/C is, setting by setting: (endpoint: mean survival time, dose: 25.0 mg/kg/injection, schedule: Q01DX009 (ip), vehicle: saline with Tween-80) 93 % of control; (endpoint: mean survival time, dose: 50.0 mg/kg/injection, schedule: Q01DX009 (ip), vehicle: saline with Tween-80) 97 % of control; under setting [7], 97 % of control.
In the case of `CCCCCCCCCCCC[n+]1ccc(C#N)cc1`, the T/C is 103 % of control (endpoint: mean survival time, dose: 9.38 mg/kg/injection, schedule: Q01DX001 (ip), vehicle: saline) and 94 % of control (endpoint: mean survival time, dose: 18.75 mg/kg/injection, schedule: Q01DX001 (ip), vehicle: saline).
With `O=C(c1ccccc1)C(CC[P+](c1ccccc1)(c1ccccc1)c1ccccc1)(OBr)c1ccccc1` (stereo not given), the T/C is 112 % of control (endpoint: mean survival time, dose: 6.25 mg/kg/injection, schedule: Q01DX001 (ip), vehicle: saline with Tween-80); 97 % of control (endpoint: mean survival time, dose: 12.5 mg/kg/injection, schedule: Q01DX001 (ip), vehicle: saline with Tween-80); 101 % of control (endpoint: mean survival time, dose: 25.0 mg/kg/injection, schedule: Q01DX001 (ip), vehicle: saline with Tween-80).

For the origin of these results see PubChem BioAssay AID256 (DTP/NCI, 2004).
